What was measured:
[1] = Compound cytotoxicity, XTT-based colorimetric assay; format: cell-based; conditions: human; uninfected MT2 cells, day 4, XTT
Experimental: Compound cytotoxicity and the corresponding CC50 values were determined using the same protocol as described in the antiviral assay except that uninfected cells were used. Cytotoxicity was assessed on day 4 in uninfected MT2 cells by using an XTT (2,3-bis[2-Methoxy-4-nitro-5-sulfophenyl]-2H-tetrazolium-5-carboxyanilide inner salt)-based colorimetric assay (Sigma-Aldrich, St Louis, Mo.).

[2] = tested on: recombinant NL4-3 virus (Renilla luciferase in nef); assay: HIV cell culture assay (antiviral activity, luciferase readout in MT-2 cells); format: cell-based; conditions: Renilla, NL43
Procedure, shortened: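 MT-2 cells were infected for 4-5 days with 293T-derived recombinant NL4-3 reporter virus in the presence of serially diluted compound. Antiviral activity was quantified as luciferase activity using a live-cell substrate. EC50 was derived from the median effect equation.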

Structure (SMILES) | CC50 at 4 days [1] [nM] | EC50 [2] [nM]
Cn1nc(NS(C)(=O)=O)c2c(Cl)ccc(-n3c([C@H](Cc4cc(F)cc(F)c4)NC(=O)Cn4nc(C(F)F)c5c4C(F)(F)[C@H]4C[C@@H]54)nc4cc(-c5ccnn5C5CC5)ccc4c3=O)c21 (atropisomer, axis not shown; (P)) [Example 43, N—((S)-1-((3P)-3-(4-chloro-1-methyl-3-(methylsulfonamido)-1H-indazol-7-yl)-7-(1-cyclopropyl-1H-pyrazol-5-yl)-4-oxo-3,4-dihydroquinazolin-2-yl)-2-(3,5-difluorophenyl)ethyl)-2-((3bS,4aR)-3-(difluoromethyl)-5,5-difluoro-3b,4,4a,5-tetrahydro-1H-cyclopropa[3,4]cyclopenta[1,2-c]pyrazol-1-yl)acetamide] | > 100 | 0.13
Cc1cc(-c2ccc3c(=O)n(-c4ccc(Cl)c5c(NS(C)(=O)=O)nn(C)c45)c([C@H](Cc4cc(F)cc(F)c4)NC(=O)Cn4nc(C(F)F)c5c4C(F)(F)[C@@H]4C[C@H]54)nc3c2)nn1CC(F)(F)C(F)(F)F (atropisomer, axis not shown; (P)) [Example 60, N—((S)-1-((3P)-3-(4-chloro-1-methyl-3-(methylsulfonamido)-1H-indazol-7-yl)-7-(5-methyl-1-(2,2,3,3,3-pentafluoropropyl)-1H-pyrazol-3-yl)-4-oxo-3,4-dihydroquinazolin-2-yl)-2-(3,5-difluorophenyl)ethyl)-2-((3bS,4aR)-3-(difluoromethyl)-5,5-difluoro-3b,4,4a,5-tetrahydro-1H-cyclopropa[3,4]cyclopenta[1,2-c]pyrazol-1-yl)acetamide] | > 100 | 0.21
Cn1nc(NS(C)(=O)=O)c2c(Cl)ccc(-n3c([C@H](Cc4cc(F)cc(F)c4)NC(=O)Cn4nc(C(F)F)c5c4C(F)(F)[C@@H]4C[C@H]54)nc4cc(-c5ncc(F)cc5F)ccc4c3=O)c21 (atropisomer, axis not shown; (P)) [Example 7, N—((S)-1-((3P)-3-(4-chloro-1-methyl-3-(methylsulfonamido)-1H-indazol-7-yl)-7-(3,5-difluoropyridin-2-yl)-4-oxo-3,4-dihydroquinazolin-2-yl)-2-(3,5-difluorophenyl)ethyl)-2-((3bS,4aR)-3-(difluoromethyl)-5,5-difluoro-3b,4,4a,5-tetrahydro-1H-cyclopropa[3,4]cyclopenta[1,2-c]pyrazol-1-yl)acetamide] | > 500 | 0.17
Cn1nc(NS(C)(=O)=O)c2c(Cl)ccc(-n3c([C@H](Cc4cc(F)cc(F)c4)NC(=O)Cn4nc(C(F)F)c5c4C(F)(F)[C@@H]4C[C@H]54)nc4cc(-c5ccc6ncsc6c5)ccc4c3=O)c21 (atropisomer, axis not shown; (P)) [Example 44, N—((S)-1-(7-(benzo[d]thiazol-6-yl)-(3P)-3-(4-chloro-1-methyl-3-(methylsulfonamido)-1H-indazol-7-yl)-4-oxo-3,4-dihydroquinazolin-2-yl)-2-(3,5-difluorophenyl)ethyl)-2-((3bS,4aR)-3-(difluoromethyl)-5,5-difluoro-3b,4,4a,5-tetrahydro-1H-cyclopropa[3,4]cyclopenta[1,2-c]pyrazol-1-yl)acetamide] | > 100 | 0.61
Cn1nc(NS(C)(=O)=O)c2c(Cl)ccc(-n3c([C@H](Cc4cc(F)cc(F)c4)NC(=O)Cn4nc(C(F)F)c5c4C(F)(F)[C@@H]4C[C@H]54)nc4cc(-c5ccnc(CF)n5)ccc4c3=O)c21 (atropisomer, axis not shown; (P)) [Example 55, N—((S)-1-((3P)-3-(4-chloro-1-methyl-3-(methylsulfonamido)-1H-indazol-7-yl)-7-(2-(fluoromethyl)pyrimidin-4-yl)-4-oxo-3,4-dihydroquinazolin-2-yl)-2-(3,5-difluorophenyl)ethyl)-2-((3bS,4aR)-3-(difluoromethyl)-5,5-difluoro-3b,4,4a,5-tetrahydro-1H-cyclopropa[3,4]cyclopenta[1,2-c]pyrazol-1-yl)acetamide] | > 100 | 0.056
Cn1nc(NS(C)(=O)=O)c2c(Cl)ccc(-n3c([C@H](Cc4cc(F)cc(F)c4)NC(=O)Cn4nc(C(F)F)c5c4C(F)(F)[C@@H]4C[C@H]54)nc4cc(-c5ccn(CCC(F)(F)F)n5)ccc4c3=O)c21 (atropisomer, axis not shown; (P)) [Example 50, N—((S)-1-((3P)-3-(4-chloro-1-methyl-3-(methylsulfonamido)-1H-indazol-7-yl)-4-oxo-7-(1-(3,3,3-trifluoropropyl)-1H-pyrazol-3-yl)-3,4-dihydroquinazolin-2-yl)-2-(3,5-difluorophenyl)ethyl)-2-((3bS,4aR)-3-(difluoromethyl)-5,5-difluoro-3b,4,4a,5-tetrahydro-1H-cyclopropa[3,4]cyclopenta[1,2-c]pyrazol-1-yl)acetamide] | > 100 | 0.066
Cc1cc(-c2ccc3c(=O)n(-c4ccc(Cl)c5c(NS(C)(=O)=O)nn(C)c45)c([C@H](Cc4cc(F)cc(F)c4)NC(=O)Cn4nc(C(F)F)c5c4C(F)(F)[C@@H]4C[C@H]54)nc3c2)nn1CC(F)(F)C(F)F (atropisomer, axis not shown; (P)) [Example 57, N—((S)-1-((3P)-3-(4-chloro-1-methyl-3-(methylsulfonamido)-1H-indazol-7-yl)-7-(5-methyl-1-(2,2,3,3-tetrafluoropropyl)-1H-pyrazol-3-yl)-4-oxo-3,4-dihydroquinazolin-2-yl)-2-(3,5-difluorophenyl)ethyl)-2-((3bS,4aR)-3-(difluoromethyl)-5,5-difluoro-3b,4,4a,5-tetrahydro-1H-cyclopropa[3,4]cyclopenta[1,2-c]pyrazol-1-yl)acetamide] | > 100 | 0.13
CCC(F)(F)Cn1ccc(-c2ccc3c(=O)n(-c4ccc(Cl)c5c(NS(C)(=O)=O)nn(C)c45)c([C@H](Cc4cc(F)cc(F)c4)NC(=O)Cn4nc(C(F)F)c5c4C(F)(F)[C@@H]4C[C@H]54)nc3c2)n1 (atropisomer, axis not shown; (P)) [Example 49, N—((S)-1-((3P)-3-(4-chloro-1-methyl-3-(methylsulfonamido)-1H-indazol-7-yl)-7-(1-(2,2-difluorobutyl)-1H-pyrazol-3-yl)-4-oxo-3,4-dihydroquinazolin-2-yl)-2-(3,5-difluorophenyl)ethyl)-2-((3bS,4aR)-3-(difluoromethyl)-5,5-difluoro-3b,4,4a,5-tetrahydro-1H-cyclopropa[3,4]cyclopenta[1,2-c]pyrazol-1-yl)acetamide] | > 100 | 0.081
Cn1nc(NS(C)(=O)=O)c2c(Cl)ccc(-n3c([C@H](Cc4cc(F)cc(F)c4)NC(=O)Cn4nc(C(F)F)c5c4C(F)(F)[C@@H]4C[C@H]54)nc4cc(-n5cc(C(F)(F)F)cn5)ccc4c3=O)c21 (atropisomer, axis not shown; (P)) [Example 38, N—((S)-1-((3P)-3-(4-chloro-1-methyl-3-(methylsulfonamido)-1H-indazol-7-yl)-4-oxo-7-(4-(trifluoromethyl)-1H-pyrazol-1-yl)-3,4-dihydroquinazolin-2-yl)-2-(3,5-difluorophenyl)ethyl)-2-((3bS,4aR)-3-(difluoromethyl)-5,5-difluoro-3b,4,4a,5-tetrahydro-1H-cyclopropa[3,4]cyclopenta[1,2-c]pyrazol-1-yl)acetamide] | > 100 | 0.17
Cn1nc(NS(C)(=O)=O)c2c(Cl)ccc(-n3c([C@H](Cc4cc(F)cc(F)c4)NC(=O)Cn4nc(C(F)F)c5c4C(F)(F)[C@@H]4C[C@H]54)nc4cc(-c5ccn(CCCF)n5)ccc4c3=O)c21 (atropisomer, axis not shown; (P)) [Example 51, N—((S)-1-((3P)-3-(4-chloro-1-methyl-3-(methylsulfonamido)-1H-indazol-7-yl)-7-(1-(3-fluoropropyl)-1H-pyrazol-3-yl)-4-oxo-3,4-dihydroquinazolin-2-yl)-2-(3,5-difluorophenyl)ethyl)-2-((3bS,4aR)-3-(difluoromethyl)-5,5-difluoro-3b,4,4a,5-tetrahydro-1H-cyclopropa[3,4]cyclopenta[1,2-c]pyrazol-1-yl)acetamide] | > 100 | 0.042
CS(=O)(=O)Nc1nn(CCCF)c2c(-n3c([C@H](Cc4cc(F)cc(F)c4)NC(=O)Cn4nc(C(F)F)c5c4C(F)(F)[C@@H]4C[C@H]54)nc4cc(-c5ccn(CC(F)(F)C(F)F)n5)ccc4c3=O)ccc(Cl)c12 [Example 67, N—((S)-1-((3P)-3-(4-chloro-1-(3-fluoropropyl)-3-(methylsulfonamido)-1H-indazol-7-yl)-4-oxo-7-(1-(2,2,3,3-tetrafluoropropyl)-1H-pyrazol-3-yl)-3,4-dihydroquinazolin-2-yl)-2-(3,5-difluorophenyl)ethyl)-2-((3bS,4aR)-3-(difluoromethyl)-5,5-difluoro-3b,4,4a,5-tetrahydro-1H-cyclopropa[3,4]cyclopenta[1,2-c]pyrazol-1-yl)acetamide] | > 100 | 0.049
Cn1nc(NS(C)(=O)=O)c2c(Cl)ccc(-n3c([C@H](Cc4cc(F)cc(F)c4)NC(=O)Cn4nc(C(F)F)c5c4C(F)(F)[C@@H]4C[C@H]54)nc4cc(-c5cccc(C(F)F)c5F)ccc4c3=O)c21 (atropisomer, axis not shown; (P)) [Example 18, N—((S)-1-((3P)-3-(4-chloro-1-methyl-3-(methylsulfonamido)-1H-indazol-7-yl)-7-(3-(difluoromethyl)-2-fluorophenyl)-4-oxo-3,4-dihydroquinazolin-2-yl)-2-(3,5-difluorophenyl)ethyl)-2-((3bS,4aR)-3-(difluoromethyl)-5,5-difluoro-3b,4,4a,5-tetrahydro-1H-cyclopropa[3,4]cyclopenta[1,2-c]pyrazol-1-yl)acetamide] | > 500 | 0.54

— patent publication US20230013823A1, “INHIBITORS OF HUMAN IMMUNODEFICIENCY VIRUS REPLICATION” (VIV HEALTHCARE UK (No. 5) LIMITED, priority 2019, published 2023)
